The source made the active and inactive calls. The rule behind the calls is not given here.
Test system: CCRIS mutagenicity, Ames/micronucleus/aberration tests
Assay: CCRIS mutagenicity studies
[1] = Test System: AMES SALMONELLA TYPHIMURIUM, Strain/Indicator: TA102, Metabolic Activation: NONE, Method: PREINCUBATION
[2] = Test System: AMES SALMONELLA TYPHIMURIUM, Strain/Indicator: TA98, Metabolic Activation: NONE, Method: STANDARD PLATE
[3] = Test System: AMES SALMONELLA TYPHIMURIUM, Strain/Indicator: TA98, Metabolic Activation: RAT, LIVER, S-9, AROCLOR 1254, Method: STANDARD PLATE
[4] = Test System: AMES SALMONELLA TYPHIMURIUM, Strain/Indicator: TA100, Metabolic Activation: NONE, Method: STANDARD PLATE
[5] = Test System: AMES SALMONELLA TYPHIMURIUM, Strain/Indicator: TA100, Metabolic Activation: RAT, LIVER, S-9, AROCLOR 1254, Method: STANDARD PLATE
[6] = Test System: AMES SALMONELLA TYPHIMURIUM, Strain/Indicator: TA98, Metabolic Activation: NONE, Method: PREINCUBATION
[7] = Test System: AMES SALMONELLA TYPHIMURIUM, Strain/Indicator: TA98, Metabolic Activation: RAT, LIVER, S-9, AROCLOR 1254, Method: PREINCUBATION
[8] = Test System: AMES SALMONELLA TYPHIMURIUM, Strain/Indicator: TA100, Metabolic Activation: NONE, Method: PREINCUBATION
[9] = Test System: AMES SALMONELLA TYPHIMURIUM, Strain/Indicator: TA100, Metabolic Activation: RAT, LIVER, S-9, AROCLOR 1254, Method: PREINCUBATION

Which mutagenic call (Test System: AMES SALMONELLA TYPHIMURIUM, Strain/Indicator: TA97, Metabolic Activation: NONE, Method: PREINCUBATION) does the source give for `C=Cc1c(C)c2[n-]c1=CC1=NC(=CC3=C(C)C(=C([O-])[O-])C(=N3)C(CC(=O)[O-])=C3N=C(C=2)C(C)C3CCC(=O)[O-])C(CC)=C1C.[Cu+2].[Na+].[Na+].[Na+]` (stereo not given) here?
The mutagenic call was “inactive; negative”.

What about the mutagenic call (Test System: AMES SALMONELLA TYPHIMURIUM, Strain/Indicator: TA97, Metabolic Activation: S-9, Method: PREINCUBATION) of the same molecule?
The mutagenic call was “inactive; negative”.

And the mutagenic call [1]?
The mutagenic call was “inactive; negative”.

And the mutagenic call (Test System: AMES SALMONELLA TYPHIMURIUM, Strain/Indicator: TA102, Metabolic Activation: S-9, Method: PREINCUBATION)?
The mutagenic call was “inactive; negative”.

What about the mutagenic call (Test System: CHINESE HAMSTER OVARY, Strain/Indicator: CHO-K1 (HGPRT)/6-THIOGUANINE) of the same molecule?
Its mutagenic call is “inactive; negative”.

For `CCC(CCC(C)O)COC(=O)CCCCC(=O)O` (stereo not given), which mutagenic call (Test System: AMES SALMONELLA TYPHIMURIUM, Strain/Indicator: TA97, Metabolic Activation: NONE, Method: STANDARD PLATE) is on record?
The mutagenic call was “inactive; negative”.

What about the mutagenic call (Test System: AMES SALMONELLA TYPHIMURIUM, Strain/Indicator: TA97, Metabolic Activation: RAT, LIVER, S-9, AROCLOR 1254, Method: STANDARD PLATE) of the same molecule?
The mutagenic call was “inactive; negative”.

What about the mutagenic call (Test System: AMES SALMONELLA TYPHIMURIUM, Strain/Indicator: TA97, Metabolic Activation: RAT, LIVER, S-9, DI(2-ETHYLHEXYL)PHTHALATE, Method: STANDARD PLATE) of the same molecule?
The mutagenic call was “inactive; negative”.

And the mutagenic call [2]?
The mutagenic call was “inactive; negative”.

What about the mutagenic call [3] of the same molecule?
Its mutagenic call is “inactive; negative”.

What about the mutagenic call (Test System: AMES SALMONELLA TYPHIMURIUM, Strain/Indicator: TA98, Metabolic Activation: RAT, LIVER, S-9, DI(2-ETHYLHEXYL)PHTHALATE, Method: STANDARD PLATE) of the same molecule?
The mutagenic call was “inactive; negative”.

What about the mutagenic call [4] of the same molecule?
Its mutagenic call is “inactive; negative”.

What about the mutagenic call [5] of the same molecule?
Its mutagenic call is “inactive; negative”.

What about the mutagenic call (Test System: AMES SALMONELLA TYPHIMURIUM, Strain/Indicator: TA100, Metabolic Activation: RAT, LIVER, S-9, DI(2-ETHYLHEXYL)PHTHALATE, Method: STANDARD PLATE) of the same molecule?
The mutagenic call was “inactive; negative”.

What about the mutagenic call (Test System: AMES SALMONELLA TYPHIMURIUM, Strain/Indicator: TA102, Metabolic Activation: NONE, Method: STANDARD PLATE) of the same molecule?
The mutagenic call was “inactive; negative”.

And the mutagenic call (Test System: AMES SALMONELLA TYPHIMURIUM, Strain/Indicator: TA102, Metabolic Activation: RAT, LIVER, S-9, AROCLOR 1254, Method: STANDARD PLATE)?
Its mutagenic call is “inactive; negative”.

And the mutagenic call (Test System: AMES SALMONELLA TYPHIMURIUM, Strain/Indicator: TA102, Metabolic Activation: RAT, LIVER, S-9, DI(2-ETHYLHEXYL)PHTHALATE, Method: STANDARD PLATE)?
Its mutagenic call is “inactive; negative”.

Which mutagenic call [5] does the source give for `Cc1ccc2nc3c4c(ccc3c(CO)c2c1)[C@H](O)[C@@H](O)C=C4` here?
Its mutagenic call is “active; positive”.

Which mutagenic call (Test System: AMES SALMONELLA TYPHIMURIUM, Strain/Indicator: TA100, Metabolic Activation: RAT, LIVER, S-9, KC500 OR PHENOBARBITAL, Method: LIQUID SUSPENSION) does the source give for `CCCCCCCCCCCCN(C)N=O` here?
Its mutagenic call is “active; positive”.

What does the source list for `CCC[C@]1(O)CC[C@H]2[C@@H]3CC[C@H]4CC(=O)C[C@H](C)[C@]4(C)[C@H]3CC[C@@]21C`?
mutagenic call (End Point: IN VITRO CHROMOSOMAL ABERRATIONS, Test System: HUMAN PERIPHERAL LYMPHOCYTES, Metabolic Activation: NONE): inactive; negative; mutagenic call (End Point: IN VITRO CHROMOSOMAL ABERRATIONS, Test System: HUMAN PERIPHERAL LYMPHOCYTES, Metabolic Activation: RAT, LIVER, S-9, AROCLOR 1254): inactive; negative; mutagenic call (End Point: IN VIVO MICRONUCLEUS, Test System: BONE MARROW POLYCHROMATIC ERYTHROCYTES, Species: MOUSE, Strain/Sex: NMRI/MALE, FEMALE, Route: SUBCUTANEOUS INJECTION): inactive; negative; mutagenic call [6]: inactive; negative; mutagenic call [2]: inactive; negative; mutagenic call [7]: inactive; negative; mutagenic call [3]: inactive; negative; mutagenic call [8]: inactive; negative; mutagenic call [4]: inactive; negative; mutagenic call [9]: inactive; negative; mutagenic call [5]: inactive; negative; mutagenic call (Test System: AMES SALMONELLA TYPHIMURIUM, Strain/Indicator: TA1535, Metabolic Activation: NONE, Method: PREINCUBATION): inactive; negative; mutagenic call (Test System: AMES SALMONELLA TYPHIMURIUM, Strain/Indicator: TA1535, Metabolic Activation: NONE, Method: STANDARD PLATE): inactive; negative; mutagenic call (Test System: AMES SALMONELLA TYPHIMURIUM, Strain/Indicator: TA1535, Metabolic Activation: RAT, LIVER, S-9, AROCLOR 1254, Method: PREINCUBATION): inactive; negative; mutagenic call (Test System: AMES SALMONELLA TYPHIMURIUM, Strain/Indicator: TA1535, Metabolic Activation: RAT, LIVER, S-9, AROCLOR 1254, Method: STANDARD PLATE): inactive; negative; mutagenic call (Test System: AMES SALMONELLA TYPHIMURIUM, Strain/Indicator: TA1537, Metabolic Activation: NONE, Method: PREINCUBATION): inactive; negative; mutagenic call (Test System: AMES SALMONELLA TYPHIMURIUM, Strain/Indicator: TA1537, Metabolic Activation: NONE, Method: STANDARD PLATE): inactive; negative; mutagenic call (Test System: AMES SALMONELLA TYPHIMURIUM, Strain/Indicator: TA1537, Metabolic Activation: RAT, LIVER, S-9, AROCLOR 1254, Method: PREINCUBATION): inactive; negative; mutagenic call (Test System: AMES SALMONELLA TYPHIMURIUM, Strain/Indicator: TA1537, Metabolic Activation: RAT, LIVER, S-9, AROCLOR 1254, Method: STANDARD PLATE): inactive; negative; mutagenic call (Test System: AMES SALMONELLA TYPHIMURIUM, Strain/Indicator: TA1538, Metabolic Activation: NONE, Method: PREINCUBATION): inactive; negative; mutagenic call (Test System: AMES SALMONELLA TYPHIMURIUM, Strain/Indicator: TA1538, Metabolic Activation: NONE, Method: STANDARD PLATE): inactive; negative; mutagenic call (Test System: AMES SALMONELLA TYPHIMURIUM, Strain/Indicator: TA1538, Metabolic Activation: RAT, LIVER, S-9, AROCLOR 1254, Method: PREINCUBATION): inactive; negative; mutagenic call (Test System: AMES SALMONELLA TYPHIMURIUM, Strain/Indicator: TA1538, Metabolic Activation: RAT, LIVER, S-9, AROCLOR 1254, Method: STANDARD PLATE): inactive; negative; mutagenic call (Test System: CHINESE HAMSTER V-79, Strain/Indicator: V-79 (HGPRT)/6-THIOGUANINE, Metabolic Activation: NONE): inactive; negative; mutagenic call (Test System: CHINESE HAMSTER V-79, Strain/Indicator: V-79 (HGPRT)/6-THIOGUANINE, Metabolic Activation: RAT, LIVER, S-9, AROCLOR 1254): inactive; negative

`CCC(CC)[N+](=O)[O-]` was tested. Which mutagenic call [8] did it give?
The mutagenic call was “inactive; negative”.

And the mutagenic call (Test System: AMES SALMONELLA TYPHIMURIUM, Strain/Indicator: TA100, Metabolic Activation: RAT, LIVER, S-9, AROCLOR, Method: PREINCUBATION)?
The mutagenic call was “inactive; negative”.

And the mutagenic call [1]?
Its mutagenic call is “inactive; negative”.

What about the mutagenic call (Test System: AMES SALMONELLA TYPHIMURIUM, Strain/Indicator: TA102, Metabolic Activation: RAT, LIVER, S-9, AROCLOR, Method: PREINCUBATION) of the same molecule?
Its mutagenic call is “inactive; negative”.

And the mutagenic call (Test System: UDS RAT HEPATOCYTES, Strain/Indicator: THY INCORP, Metabolic Activation: NONE)?
Its mutagenic call is “active; positive”.

Which mutagenic call [6] does the source give for `O=NN1CSCC1C(=O)O` (stereo not given) here?
The mutagenic call was “inactive; negative”.

What about the mutagenic call [2] of the same molecule?
Its mutagenic call is “inactive; negative”.

And the mutagenic call [7]?
Its mutagenic call is “inactive; negative”.

And the mutagenic call [3]?
Its mutagenic call is “inactive; negative”.

What about the mutagenic call [8] of the same molecule?
The mutagenic call was “inactive; negative”.

And the mutagenic call [4]?
The mutagenic call was “inactive; negative”.

And the mutagenic call [9]?
The mutagenic call was “inactive; negative”.

What about the mutagenic call [5] of the same molecule?
Its mutagenic call is “inactive; negative”.

Which results are given for `Oc1ccc(/C=C/c2cc(O)cc(O)c2)cc1`?
mutagenic call (End Point: CHROMOSOMAL ABERRATIONS, Test System: CHINESE HAMSTER LUNG CELLS, Metabolic Activation: NONE): active; positive (structural and ploidy changes); mutagenic call (Test System: Ames Salmonella typhimurium, Strain/Indicator: TA102, Metabolic Activation: None, Method: Preincubation): inactive; negative; mutagenic call (Test System: Ames Salmonella typhimurium, Strain/Indicator: TA102, Metabolic Activation: Rat, Liver, S-9, Aroclor 1254 in 0.154 M KCl, Method: Preincubation): inactive; negative
